Measured values published in patent US20260169012A1, “WHOLE BLOOD CONTROL SAMPLE SYSTEMS AND METHOD OF PREPARING AND USING THE SAME” (Perosphere Technologies Inc., priority 2020, published 2026).
Where two headings read alike, the source gives them in different places.

Assays:
[1] = system: surrogate whole blood control; test: Clotting time of surrogate whole blood control on PoC Coagulometer, benzamidine in activation solution (Example 4); parameters: species or system horse, sheep; conditions: for Clotting time: 22 mM CaCl2
Description: (§1) Plasma was prepared by mixing sheep plasma and horse plasma at a mixing ratio of 1:9. Sheep fibrinogen solution (45.72 mg/mL in 20 mM sodium citrate-HCl, pH 7.4) was diluted to 40 mg/mL with saline. Plasma base was further prepared by mixing 77% (w/v) plasma and 23% (w/v) sheep fibrinogen solution (40 mg/mL). Whole blood control was prepared by resuspending 35% (w/v) 3% glutaraldehyde-fixed horse red blood cells in 65% (w/v) plasma base, with addition of rabbit brain cephalin to a final concentration of 0.144 mg/mL. The whole blood control was then freeze-thawed once and freeze-dried in glass vials. To test the effect of benzamidine concentration in activation solution on clotting time, the freeze-dried surrogate whole blood control was reconstituted in a diluent solution to half of its original volume, incubated at room temperature for 6 minutes, and mixed by swirling the glass vial gently for an additional 1 minute. The control was then activated by addition of an activation solution containing 22 mM CaCl2) and varying concentrations of benzamidine at the volume ratio of 1:1, followed by six times of rapid inversion. The samples were tested on Perosphere Technologies' PoC Coagulometers immediately after activation.

[2] = system: surrogate whole blood control; test: Clotting time of surrogate whole blood control on PoC Coagulometer, benzamidine in lyophilizate (Example 2); parameters: species or system horse, sheep; conditions: for Clotting time: activated with 22 mM calcium chloride
Description: Plasma was prepared by mixing sheep plasma and horse plasma at a mixing ratio of 1:9. Sheep fibrinogen solution (45.72 mg/mL in 20 mM sodium citrate-HCl, pH 7.4) was diluted to 40 mg/mL with saline. Plasma base was further prepared by mixing 77% (w/v) plasma and 23% (w/v) sheep fibrinogen solution (40 mg/mL). Whole blood control was prepared by resuspending 35% (w/v) 2% glutaraldehyde-fixed horse red blood cells in 65% (w/v) plasma base, with addition of rabbit brain cephalin to a final concentration of 0.144 mg/mL. Benzamidine of varying concentrations were added to the preparation. The whole blood control was then freeze-dried in glass vials. To test the effect of benzamidine in lyophilizate on clotting time, the freeze-dried surrogate whole blood control was reconstituted in a diluent solution to half of its original volume, incubated at room temperature for 6 minutes, and mixed by swirling the glass vial gently for an additional 1 minute. The control was then activated by addition of 22 mM calcium chloride at the volume ratio of 1:1, followed by six times of rapid inversion. The samples were tested on Perosphere Technologies' PoC Coagulometers immediately after activation.

[3] = system: surrogate whole blood control
Description: as §1, with “mg/mL by” for “mg/mL with”, “(w/v) 2%” for “(w/v) 3%”, “of calcium chloride” for “of benzamidine”, “of calcium chloride” for “of an activation”, “solution of” for “solution containing 22 mM CaCl2) and”, “concentrations” for “concentrations of benzamidine”

SMILES | Response of clotting time to benzamidine concentration in activation solution ([1]; 0-6.6 mM in activation solution, FIG. 2) | Clotting time ([1]; benzamidine concentration in activation solution 1.1 mM) | Clotting time ([1]; benzamidine concentration in activation solution 2.2 mM) | Clotting time ([1]; benzamidine concentration in activation solution 4.4 mM) | Clotting time ([1]; benzamidine concentration in activation solution 6.6 mM) | Response of clotting time to benzamidine concentration in lyophilizate (dose-response curve) ([2]; 0-2.2 mM in lyophilizate, FIG. 1) | Clotting time ([2]; benzamidine concentration in lyophilizate 1.1 mM) | Clotting time ([2]; benzamidine concentration in lyophilizate 2.2 mM) | Clotting time ([3]; CaCl2 concentration in activation solution 14 mM) | Clotting time ([3]; CaCl2 concentration in activation solution 22 mM) | Clotting time ([3]; CaCl2 concentration in activation solution 30 mM) | Clotting time ([3]; CaCl2 concentration in activation solution 40 mM)
N=C(N)c1ccccc1 [Benzamidine, benzamidine] | linear response | 206.00 s | 249.00 s | 357.67 s | 422.50 s | linear | 339.33 s | 495.00 s | – | – | – | –
[Ca+2].[Cl-].[Cl-] [CaCl2, calcium chloride] | – | – | – | – | – | – | – | – | 199.00 s | 154.00 s | 166.00 s | 203.33 s
